According to patent US8183243B2, “Melanocortin receptor agonists” (LG Life Sciences Ltd., priority 2008, dated 2012):

target: T1, MC4R (Homo sapiens, UniProt P32245); experiment: MCR agonistic activity (luciferase assay / cAMP accumulation assay) on MC4R; assay type: cell-based; conditions: HEK cell lines expressing MC4R; method A (CRE-luciferase) or B (cAMP accumulation), not said which; read-out: EC50 value, agonistic activity to MC4R (range per group of Examples)
T1 construct: expressed in transfected cells; host or cells: HEK (Human Embryonic Kidney) permanent expression cell line HEK MC4R-Luc, co-expressing CRE-luciferase
T1 sequence (P32245 whole entry, species assumed): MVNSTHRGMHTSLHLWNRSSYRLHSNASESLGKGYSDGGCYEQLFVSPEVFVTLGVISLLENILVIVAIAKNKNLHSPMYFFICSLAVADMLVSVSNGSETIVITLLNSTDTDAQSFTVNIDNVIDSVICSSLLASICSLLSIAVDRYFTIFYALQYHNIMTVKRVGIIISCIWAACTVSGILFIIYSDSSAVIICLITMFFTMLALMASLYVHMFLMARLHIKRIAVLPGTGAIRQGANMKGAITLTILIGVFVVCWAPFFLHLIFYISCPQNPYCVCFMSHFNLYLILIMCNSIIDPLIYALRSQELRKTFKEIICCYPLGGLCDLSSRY
Outline: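 HEK cells stably expressing MC4R with a CRE-luciferase reporter treated 5 hours at 37 °C with serially diluted agonist (≤1% DMSO); luminescence expressed relative to 10 nM NDP-MSH, EC50 at half-maximal signal. Alternatively, cAMP measured after 30 minutes with compound plus 500 μM IBMX by [3H]-cAMP competition binding.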

Compound	EC50 [nM]
CN1CCN(C(=O)[C@@H]2C[C@H](N(C(=O)[C@@H]3CCCO3)[C@H]3CC[C@@H](C)CC3)CN2C(=O)[C@@H]2CN(c3ccccn3)C[C@H]2c2ccc(F)cc2F)CC1 [Example 68, (2S)-N-{(3S,5S)-1-{[(3S,4R)-4-(2,4-difluorophenyl)-1-pyridine-2-ylpyrrolidin-3-yl]carbonyl}-5-[(4-methylpiperazin-1-yl)carbonyl]pyrrolidin-3-yl}-N-(cis-4-methylcyclohexyl)tetrahydrofuran-2-carboxamide]	0.1 to 10
CN1CCN(C(=O)[C@@H]2C[C@H](N(C(=O)[C@@H]3CCCO3)[C@H]3CC[C@@H](C)CC3)CN2C(=O)[C@@H]2CN(c3ccc(C#N)cn3)C[C@H]2c2ccc(Cl)cc2)CC1 [Example 69, (2S)-N-{(3S,5S)-1-{[(3S,4R)-4-(4-chlorophenyl)-1-(5-cyanopyridine-2-yl)pyrrolidin-3-yl]carbonyl}-5-[(4-methylpiperazin-1-yl)carbonyl]pyrrolidin-3-yl}-N-(cis-4-methylcyclohexyl)tetrahydrofuran-2-carboxamide]	0.1 to 10
CN1CCN(C(=O)[C@@H]2C[C@H](N(C(=O)C(C)(C)C)C3CCC(C)(C)CC3)CN2C(=O)[C@@H]2CN(c3nccs3)C[C@H]2c2ccc(Cl)cc2)CC1 [Example 70, N-{(3S,5S)-1-{[(3S,4R)-4-(4-chlorophenyl)-1-(1,3-thiazole-2-yl)pyrrolidin-3-yl]carbonyl}-5-[(4-methylpiperazin-1-yl)carbonyl]pyrrolidin-3-yl}-N-(4,4-dimethylcyclohexyl)-2,2-dimethylpropanamide]	100 to 1000
Cc1ccccc1N1C[C@@H](C(=O)N2C[C@@H](N(C(=O)[C@@H]3CCCO3)[C@H]3CC[C@@H](C)CC3)C[C@H]2C(=O)N2CCN(C)CC2)[C@H](c2ccc(Cl)cc2)C1 [Example 71, (2S)-N-{(3S,5S)-1-{[(3S,4R)-4-(4-chlorophenyl)-1-(2-methylphenyl)pyrrolidin-3-yl]carbonyl}-5-[(4-methylpiperazin-1-yl)carbonyl]pyrrolidin-3-yl}-N-(cis-4-methylcyclohexyl)tetrahydrofuran-2-carboxamide]	1000 to 10000
CN1CCN(C(=O)[C@@H]2C[C@H](N(C(=O)[C@@H]3CCCO3)[C@H]3CC[C@@H](C)CC3)CN2C(=O)[C@@H]2CN(c3ccc(=O)n(C)n3)C[C@H]2c2ccc(Cl)cc2)CC1 [Example 72, (2S)-N-{(3S,5S)-1-{[(3S,4R)-4-(4-chlorophenyl)-1-(1-methyl-6-oxo-1,6-dihydropyridazine-3-yl)pyrrolidin-3-yl]carbonyl}-5-[(4-methylpiperazin-1-yl)carbonyl]pyrrolidin-3-yl}-N-(cis-4-methylcyclohexyl)tetrahydrofuran-2-carboxamide]	0.1 to 10
CN1CCN(C(=O)[C@@H]2C[C@H](N(C(=O)[C@@H]3CCCO3)[C@H]3CC[C@@H](C)CC3)CN2C(=O)[C@@H]2CN(c3ccc(=O)[nH]n3)C[C@H]2c2ccc(Cl)cc2)CC1 [Example 73, (2S)-N-{(3S,5S)-1-{[(3S,4R)-4-(4-chlorophenyl)-1-(6-oxo-1,6-dihydropyridazine-3-yl)pyrrolidin-3-yl]carbonyl]-5-[(4-methylpiperazin-1-yl)carbonyl]pyrrolidin-3-yl}-N-(cis-4-methylcyclohexyl)tetrahydrofuran-2-carboxamide]	0.1 to 10
CN1CCN(C(=O)[C@@H]2C[C@H](N(C(=O)[C@@H]3CCCO3)[C@H]3CC[C@@H](C)CC3)CN2C(=O)[C@H]2CN(C(C)(C)C)C[C@H]2c2ccc(Cl)cc2)CC1 [Example 74, (2S)-N-{(3S,5S)-1-{[(3R,4R)-1-tert-butyl-4-(4-chlorophenyl)pyrrolidin-3-yl]carbonyl}-5-[(4-methylpiperazin-1-yl)carbonyl]pyrrolidin-3-yl}-N-(cis-4-methylcyclohexyl)tetrahydrofuran-2-carboxamide]	10 to 100
CN1CCN(C(=O)[C@@H]2C[C@H](N(C(=O)[C@@H]3CCCO3)[C@H]3CC[C@@H](C)CC3)CN2C(=O)[C@@H]2CN(C(C)(C)C)C[C@@H]2c2ccc(Cl)cc2)CC1 [Example 75, (2S)-N-{(3S,5S)-1-{[(3S,4S)-1-tert-butyl-4-(4-chlorophenyl)pyrrolidin-3-yl]carbonyl}-5-[(4-methylpiperazin-1-yl)carbonyl]pyrrolidin-3-yl}-N-(cis-4-methylcyclohexyl)tetrahydrofuran-2-carboxamide]	1000 to 10000
CN1CCN(C(=O)[C@@H]2C[C@@H](N(C(=O)[C@@H]3CCCO3)[C@H]3CC[C@@H](C)CC3)CN2C(=O)[C@@H]2CN(C(C)(C)C)C[C@H]2c2ccc(Cl)cc2)CC1 [Example 76, (2S)-N-{(3R,5S)-1-{[(3S,4R)-1-tert-butyl-4-(4-chlorophenyl)pyrrolidin-3-yl]carbonyl}-5-[(4-methylpiperazin-1-yl)carbonyl]pyrrolidin-3-yl}-N-(cis-4-methylcyclohexyl)tetrahydrofuran-2-carboxamide]	100 to 1000
CN1CCN(C(=O)[C@@H]2C[C@H](N(C(=O)[C@@H]3CCCO3)c3ccc(F)cc3F)CN2C(=O)[C@@H]2CN(C(C)(C)C)C[C@H]2c2ccc(Cl)cc2)CC1 [Example 77, (2S)-N-{(3S,5S)-1-{[(3S,4R)-1-tert-butyl-4-(4-chlorophenyl)pyrrolidin-3-yl]carbonyl}-5-[(4-methylpiperazin-1-yl)carbonyl]pyrrolidin-3-yl}-N-(2,4-difluorophenyl)tetrahydrofuran-2-carboxamide]	10 to 100
CC(C)C(=O)N(c1ccc(F)cc1F)[C@H]1C[C@@H](C(=O)N2CCNCC2)N(C(=O)[C@@H]2CN(C(C)(C)C)C[C@H]2c2ccc(Cl)cc2)C1 [Example 78, N-[(3S,5S)-1-{[(3S,4R)-1-tert-butyl-4-(4-chlorophenyl)pyrrolidin-3-yl]carbonyl}-5-(piperazin-1-ylcarbonyl)pyrrolidin-3-yl]-N-(2,4-difluorophenyl)-2-methylpropanamide]	0.1 to 10
CN1CCN(C(=O)[C@@H]2C[C@H](N(C(=O)C(C)(C)C)c3ccc(F)cc3F)CN2C(=O)[C@@H]2CN(C(C)(C)C)C[C@H]2c2ccc(Cl)cc2)CC1 [Example 80, N-{(3S,5S)-1-{[(3S,4R)-1-tert-butyl-4-(4-chlorophenyl)pyrrolidin-3-yl]carbonyl}-5-[(4-methylpiperazin-1-yl)carbonyl]pyrrolidin-3-yl}-N-(2,4-difluorophenyl)-2,2-dimethylpropanamide]	0.1 to 10
CC(C)(C)C(=O)N(c1ccc(F)cc1F)[C@H]1C[C@@H](C(=O)N2CCNCC2)N(C(=O)[C@@H]2CN(C(C)(C)C)C[C@H]2c2ccc(Cl)cc2)C1 [Example 81]	0.1 to 10
CN1CCN(C(=O)[C@@H]2C[C@H](N(C(=O)C(C)(C)C)c3ccc(F)cc3F)CN2C(=O)[C@@H]2CN(C(C)(C)C)C[C@H]2c2ccc(F)cc2F)CC1 [Example 82, N-{(3S,5S)-1-{[(3S,4R)-1-tert-butyl-4-(2,4-difluorophenyl)pyrrolidin-3-yl]carbonyl}-5-[(4-methylpiperazin-1-yl)carbonyl]pyrrolidin-3-yl}-N-(2,4-difluorophenyl)-2,2-dimethylpropanamide]	0.1 to 10
CN1CCN(C(=O)[C@@H]2C[C@H](N(C(=O)c3ccco3)c3ccc(F)cc3F)CN2C(=O)[C@@H]2CN(C(C)(C)C)C[C@H]2c2ccc(Cl)cc2)CC1 [Example 83, N-{(3S,5S)-1-{[(3S,4R)-1-tert-butyl-4-(4-chlorophenyl)pyrrolidin-3-yl]carbonyl}-5-[(4-methylpiperazin-1-yl)carbonyl]pyrrolidin-3-yl}-N-(2,4-difluorophenyl)-2-furamide]	10 to 100
